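Compound exposure: 48 hours, 5 concentrations, 96-well plates. Here, GI50 denotes the concentration required for 50% inhibition of growth. TGI: total growth inhibition.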
Tests used:
Test in all cases: NCI tumour cell line growth inhibition, 48 h
786-0 renal = tested on: 786-0 renal
A498 renal = tested on: A498 renal
A549 NSCLC = tested on: A549 NSCLC
CAKI-1 renal = tested on: CAKI-1 renal
CCRF-CEM leukemia = tested on: CCRF-CEM leukemia
COLO 205 colon = tested on: COLO 205 colon
DU-145 prostate = tested on: DU-145 prostate
EKVX NSCLC = tested on: EKVX NSCLC
HCT-116 colon = tested on: HCT-116 colon
HL-60(TB) leukemia = tested on: HL-60(TB) leukemia
HOP-62 NSCLC = tested on: HOP-62 NSCLC
HS 578T breast = tested on: HS 578T breast
IGROV1 ovarian = tested on: IGROV1 ovarian
K-562 leukemia = tested on: K-562 leukemia
KM12 colon = tested on: KM12 colon
LOX IMVI melanoma = tested on: LOX IMVI melanoma
M14 melanoma = tested on: M14 melanoma
MALME-3M melanoma = tested on: MALME-3M melanoma
MCF7 breast = tested on: MCF7 breast
MDA-MB-231 breast = tested on: MDA-MB-231 breast
MDA-MB-435 = tested on: MDA-MB-435
MOLT-4 leukemia = tested on: MOLT-4 leukemia
NCI-H226 lung = tested on: NCI-H226 lung
NCI-H23 lung = tested on: NCI-H23 lung
NCI-H460 lung = tested on: NCI-H460 lung
NCI-H522 lung = tested on: NCI-H522 lung
NCI/ADR-RES ovarian = tested on: NCI/ADR-RES ovarian
OVCAR-3 ovarian = tested on: OVCAR-3 ovarian
OVCAR-4 ovarian = tested on: OVCAR-4 ovarian
OVCAR-5 ovarian = tested on: OVCAR-5 ovarian
OVCAR-8 ovarian = tested on: OVCAR-8 ovarian
PC-3 prostate = tested on: PC-3 prostate
RPMI-8226 leukemia = tested on: RPMI-8226 leukemia
RXF 393 renal = tested on: RXF 393 renal
SF-268 CNS = tested on: SF-268 CNS
SF-295 CNS = tested on: SF-295 CNS
SF-539 CNS = tested on: SF-539 CNS
SK-MEL-28 melanoma = tested on: SK-MEL-28 melanoma
SK-MEL-5 melanoma = tested on: SK-MEL-5 melanoma
SK-OV-3 ovarian = tested on: SK-OV-3 ovarian
SN12C renal = tested on: SN12C renal
SNB-19 CNS = tested on: SNB-19 CNS
SR leukemia = tested on: SR leukemia
SW-620 colon = tested on: SW-620 colon
T-47D breast = tested on: T-47D breast
TK-10 renal = tested on: TK-10 renal
U251 CNS = tested on: U251 CNS
UACC-257 melanoma = tested on: UACC-257 melanoma
UACC-62 melanoma = tested on: UACC-62 melanoma
UO-31 renal = tested on: UO-31 renal

Cc1cccc(NC2=C(Cl)C(=O)N(Cc3ccc(Cl)cc3)C2=O)c1
GI50 (786-0 renal): 2.16 µM
TGI (786-0 renal): 14.8 µM
GI50 (A498 renal): 2 µM
TGI (A498 renal): 5.14 µM
GI50 (A549 NSCLC): 12.5 µM
TGI (A549 NSCLC): 34.2 µM
GI50 (CAKI-1 renal): 4.61 µM
TGI (CAKI-1 renal): 24.6 µM
GI50 (CCRF-CEM leukemia): 0.214 µM
TGI (CCRF-CEM leukemia): 1.78 µM
GI50 (COLO 205 colon): 3.08 µM
TGI (COLO 205 colon): 15 µM
GI50 (DU-145 prostate): 9.97 µM
TGI (DU-145 prostate): 60.2 µM
GI50 (EKVX NSCLC): 7.15 µM
TGI (EKVX NSCLC): 27.1 µM
GI50 (HCT-116 colon): 2.94 µM
TGI (HCT-116 colon): 10.8 µM
GI50 (HL-60(TB) leukemia): 4.83 µM
TGI (HL-60(TB) leukemia): 20.3 µM
GI50 (HOP-62 NSCLC): 3.88 µM
TGI (HOP-62 NSCLC): 15 µM
GI50 (HS 578T breast): 7.35 µM
TGI (HS 578T breast): 37.3 µM
GI50 (IGROV1 ovarian): 2.25 µM
TGI (IGROV1 ovarian): 12.1 µM
GI50 (K-562 leukemia): 3.63 µM
TGI (K-562 leukemia): 13.9 µM
GI50 (KM12 colon): 3.27 µM
TGI (KM12 colon): 16.9 µM
GI50 (LOX IMVI melanoma): 2.88 µM
TGI (LOX IMVI melanoma): 16 µM
GI50 (M14 melanoma): 4.33 µM
TGI (M14 melanoma): 19.9 µM
GI50 (MALME-3M melanoma): 3.25 µM
TGI (MALME-3M melanoma): 22.7 µM
GI50 (MCF7 breast): 3.17 µM
TGI (MCF7 breast): > 100 µM
GI50 (MDA-MB-231 breast): 2.27 µM
TGI (MDA-MB-231 breast): 8.77 µM
GI50 (MDA-MB-435): 4.74 µM
TGI (MDA-MB-435): 19 µM
GI50 (MOLT-4 leukemia): 3.14 µM
TGI (MOLT-4 leukemia): 12.4 µM
GI50 (NCI-H226 lung): 1.2 µM
TGI (NCI-H226 lung): 8.04 µM
GI50 (NCI-H23 lung): 1.64 µM
TGI (NCI-H23 lung): 10.7 µM
GI50 (NCI-H460 lung): 2.81 µM
TGI (NCI-H460 lung): 33.9 µM
GI50 (NCI-H522 lung): 3.09 µM
TGI (NCI-H522 lung): 13.1 µM
GI50 (NCI/ADR-RES ovarian): 1.56 µM
TGI (NCI/ADR-RES ovarian): 8.03 µM
GI50 (OVCAR-3 ovarian): 7.19 µM
TGI (OVCAR-3 ovarian): 21 µM
GI50 (OVCAR-4 ovarian): 3.84 µM
TGI (OVCAR-4 ovarian): 40.4 µM
GI50 (OVCAR-5 ovarian): 28 µM
TGI (OVCAR-5 ovarian): 74.5 µM
GI50 (OVCAR-8 ovarian): 6.46 µM
TGI (OVCAR-8 ovarian): 23.8 µM
GI50 (PC-3 prostate): 2.1 µM
TGI (PC-3 prostate): 8.67 µM
GI50 (RPMI-8226 leukemia): 1.07 µM
TGI (RPMI-8226 leukemia): 3.2 µM
GI50 (RXF 393 renal): 7.72 µM
TGI (RXF 393 renal): 27.6 µM
GI50 (SF-268 CNS): 4.93 µM
TGI (SF-268 CNS): > 100 µM
GI50 (SF-295 CNS): 5.8 µM
TGI (SF-295 CNS): 27.4 µM
GI50 (SF-539 CNS): 2.11 µM
TGI (SF-539 CNS): 13.6 µM
GI50 (SK-MEL-28 melanoma): 3.88 µM
TGI (SK-MEL-28 melanoma): 22.8 µM
GI50 (SK-MEL-5 melanoma): 2.23 µM
TGI (SK-MEL-5 melanoma): 7.76 µM
GI50 (SK-OV-3 ovarian): 3.51 µM
TGI (SK-OV-3 ovarian): 18.7 µM
GI50 (SN12C renal): 4.37 µM
TGI (SN12C renal): 43.6 µM
GI50 (SNB-19 CNS): 2.94 µM
TGI (SNB-19 CNS): 25.8 µM
GI50 (SR leukemia): 1.79 µM
TGI (SR leukemia): 4.88 µM
GI50 (SW-620 colon): 2.23 µM
TGI (SW-620 colon): 12.9 µM
GI50 (T-47D breast): 3.47 µM
TGI (T-47D breast): 28.9 µM
GI50 (TK-10 renal): 3.8 µM
TGI (TK-10 renal): 21 µM
GI50 (U251 CNS): 4.08 µM
TGI (U251 CNS): > 100 µM
GI50 (UACC-257 melanoma): 16.6 µM
TGI (UACC-257 melanoma): 47.9 µM
GI50 (UACC-62 melanoma): 4.89 µM
TGI (UACC-62 melanoma): 29.9 µM
GI50 (UO-31 renal): 11.9 µM
TGI (UO-31 renal): > 100 µM

Reference: PubChem BioAssay (NCI)
